Experiment [1] concerns the target T1, Nucleotide-binding oligomerization domain-containing protein 1 (Homo sapiens, UniProt Q9Y239).
T1 sequence (Q9Y239 whole entry): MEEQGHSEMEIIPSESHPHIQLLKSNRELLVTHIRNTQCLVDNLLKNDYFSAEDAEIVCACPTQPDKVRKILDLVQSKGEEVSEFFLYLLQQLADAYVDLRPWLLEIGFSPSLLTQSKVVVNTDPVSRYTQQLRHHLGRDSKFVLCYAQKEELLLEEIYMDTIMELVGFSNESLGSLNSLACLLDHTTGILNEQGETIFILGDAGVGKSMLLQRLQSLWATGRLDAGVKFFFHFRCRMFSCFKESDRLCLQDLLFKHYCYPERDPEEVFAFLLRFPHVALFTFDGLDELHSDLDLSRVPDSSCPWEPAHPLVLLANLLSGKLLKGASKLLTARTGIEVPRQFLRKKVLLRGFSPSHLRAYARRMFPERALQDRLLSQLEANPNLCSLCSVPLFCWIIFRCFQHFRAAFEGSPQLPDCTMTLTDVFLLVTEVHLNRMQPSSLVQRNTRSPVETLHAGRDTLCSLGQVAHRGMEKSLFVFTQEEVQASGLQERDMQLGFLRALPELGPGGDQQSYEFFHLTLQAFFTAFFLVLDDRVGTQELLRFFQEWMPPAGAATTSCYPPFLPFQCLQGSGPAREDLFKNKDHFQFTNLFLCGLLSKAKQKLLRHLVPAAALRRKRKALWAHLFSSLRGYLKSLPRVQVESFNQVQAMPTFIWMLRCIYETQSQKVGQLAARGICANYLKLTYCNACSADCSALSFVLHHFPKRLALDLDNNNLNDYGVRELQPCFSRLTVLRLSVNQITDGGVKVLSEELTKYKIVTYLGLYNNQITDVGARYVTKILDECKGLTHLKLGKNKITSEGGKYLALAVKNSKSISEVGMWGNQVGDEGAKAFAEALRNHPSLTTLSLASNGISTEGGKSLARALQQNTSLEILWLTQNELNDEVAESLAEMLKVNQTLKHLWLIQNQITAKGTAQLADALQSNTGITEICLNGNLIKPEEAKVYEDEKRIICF
As to the kind of experiment: SAR analysis of compounds that inhibit NOD1 - Set 3. [Related pubchem assays (depositor defined):AID1566, AID1575, AID1578, AID1849, AID1852, AID2333, AID2335, AID2466]. In kind it is functional.

Experiment [2] deals with HEK293. As to the kind of experiment: SAR analysis of compounds that are cytotoxic to HEK293 - Set 3. [Related pubchem assays (depositor defined):AID1575, AID1578, AID1848, AID1849, AID2001, AID2333, AID2334, AID2335, AID2337, AID2469]. It is filed as functional, cell-based. Particulars: Homo sapiens.
The target of experiment [3] is T1, Nucleotide-binding oligomerization domain-containing protein 1. As to the kind of experiment: SAR analysis of NF-kappaB dependent luciferase using DAP as an inducer - Set 2. [Related pubchem assays (depositor defined):AID1566, AID1575, AID1578, AID1579, AID1849, AID1852, AID2264]. It is filed as functional.
Experiment [4] addresses T2, Interleukin-8 (Homo sapiens, UniProt P10145).
T2 sequence (P10145 whole entry): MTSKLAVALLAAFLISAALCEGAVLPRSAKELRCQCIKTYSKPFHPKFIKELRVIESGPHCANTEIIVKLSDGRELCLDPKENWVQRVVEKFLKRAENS
The experiment is described as follows: SAR analysis of GM-Tri-DAP induced IL-8 secretion in MCF-7/NOD1 cells - Set 2. [Related pubchem assays (depositor defined):AID1575, AID1578, AID2333]. In kind it is functional, cell-based.

Experiment [5] relates to HEK293. As to the kind of experiment: SAR analysis of compounds that are cytotoxic to HEK293 - Set 2. [Related pubchem assays (depositor defined):AID1575, AID1578, AID1849, AID2001, AID2333, AID2334, AID2335, AID2337, AID2800]. It is filed as functional, cell-based. Particulars: Homo sapiens.
The nature of experiment [6]: reduction of Shn3 3'UTR-driven luciferase in osteoblasts – cell-based, Clone20 osteoblasts, firefly luciferase, cherry-picked, dose response (AID 624132).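 Also: firefly luciferase luminescence from reporter carrying the Shn3 3'UTR in osteoblasts.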 In kind it is functional.
For experiment [7], the target named is T3, Nucleotide-binding oligomerization domain-containing protein 2 (Homo sapiens, UniProt Q9HC29). The experiment is described as follows: inhibition of NOD2 signaling – set 2, SAR follow-up (AID 2475). It is filed as functional.
Experiment [8] has as its target T1, Nucleotide-binding oligomerization domain-containing protein 1. As to the kind of experiment: SAR analysis of compounds that inhibit NOD1 - Set 2. [Related pubchem assays (depositor defined):AID1566, AID1575, AID1578, AID1849, AID1852, AID2333, AID2335, AID2798]. In kind it is functional.
Experiment [9] has as its target T3, Nucleotide-binding oligomerization domain-containing protein 2. The experiment is described as follows: inhibition of MDP-driven NOD2 NF-kB reporter – cell-based, set 3, SAR follow-up (AID 2799). It is filed as functional.
Experiment [10] is described as follows: non-specific 3'UTR reporter inhibition in Clone20-Shn3RL – cell-based, Renilla luciferase, cherry-picked, counter-screen for Shn3 inhibitor project, dose response (AID 624133). It is filed as functional.
For experiment [11], the target named is T2, Interleukin-8. The experiment is described as follows: SAR analysis of Tumor necrosis factor alpha (TNF-alpha) induced IL-8 secretion in MCF-7/NOD1 cells - Set 2. [Related pubchem assays (depositor defined):AID1575, AID2250, AID2260]. It is filed as functional, cell-based.
The target of a further experiment is Tumor necrosis factor (Homo sapiens, UniProt P01375). The experiment is described as follows: analog potency on TNFa NF-kB signaling – cell-based, set 3, SAR follow-up (AID 2801). It is filed as functional.
Experiment [12] in a line: loss of viability in HepG2 cells – cell-based, CellTiter-Glo, cherry-picked, cytotoxicity control for Shn3 inhibitor project, dose response (AID 624134). In kind it is functional.
Experiment [13] addresses Sphingosine 1-phosphate receptor 2 (Homo sapiens, UniProt O95136). The experiment is described as follows: Late stage counterscreen assay for S1P4 antagonists: Fluorescence dose response cell-based screening assay for antagonists of the Sphingosine 1-Phosphate Receptor 2 (S1P2). [Related pubchem assays (depositor defined):AID1510, AID1524, AID1692, AID1853, AID2332, AID489009, AID489017]. It is filed as functional.

Experiment [14] addresses Sphingosine 1-phosphate receptor 3 (Homo sapiens, UniProt Q99500). The experiment is described as follows: Late stage counterscreen assay for S1P4 antagonists: Fluorescence dose response cell-based screening assay for antagonists of the Sphingosine 1-Phosphate Receptor 3 (S1P3). [Related pubchem assays (depositor defined):AID1510, AID1524, AID1692, AID1853, AID2332, AID489009, AID489017]. In kind it is functional.

Experiment [15] addresses Sphingosine 1-phosphate receptor 5 (Homo sapiens, UniProt Q9H228). The experiment is described as follows: Late stage counterscreen assay for S1P4 antagonists: Fluorescence dose response cell-based screening assay for antagonists of the Sphingosine 1-Phosphate Receptor 5 (S1P5). [Related pubchem assays (depositor defined):AID1510, AID1524, AID1692, AID1853, AID2332, AID489009, AID489017]. It is filed as functional.

The target of experiment [16] is Sphingosine 1-phosphate receptor 1 (Homo sapiens, UniProt P21453). The experiment is described as follows: Late stage counterscreen assay for S1P4 antagonists: Fluorescence dose response cell-based screening assay for antagonists of the Sphingosine 1-Phosphate Receptor 1 (S1P1). [Related pubchem assays (depositor defined):AID1510, AID1524, AID1692, AID1853, AID2332, AID489009, AID489017]. In kind it is functional.

In experiment [17] the target is G-protein coupled receptor 55 (Homo sapiens, UniProt Q9Y2T6). The experiment is described as follows: SAR Analysis of Selective Antagonists of GPR55 using an Image-Based Assay - Set 4. [Related pubchem assays (depositor defined):AID2013, AID2026]. It is filed as functional.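 Also: antagonism of response to 5 µM lysophosphatidylinositol agonist.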
Experiment [18] has as its target T4, Cannabinoid receptor 1 (Homo sapiens, UniProt P21554). As to the kind of experiment: SAR analysis of agonists of the Cannabinoid Receptor 1 using an Image-Based Assay - Set 4. [Related pubchem assays (depositor defined):AID2013, AID2026]. In kind it is functional.
The target of experiment [19] is T5, G-protein coupled receptor 35 (Homo sapiens, UniProt Q9HC97). The experiment is described as follows: SAR analysis of Antagonists of the GPR35 Receptor using an Image-Based Assay - Set 6. [Related pubchem assays (depositor defined):AID2013, AID2026]. It is filed as functional.
Experiment [20] concerns the target T6, Cannabinoid receptor 2 (Homo sapiens, UniProt P34972). The experiment is described as follows: SAR analysis of antagonists of the Cannabinoid Receptor 2 using an Image-Based Assay - Set 3. [Related pubchem assays (depositor defined):AID2013, AID2026]. In kind it is functional.
For experiment [21], the target named is T4, Cannabinoid receptor 1. As to the kind of experiment: SAR analysis of antagonists of the Cannabinoid Receptor 1 using an Image-Based Assay - Set 4. [Related pubchem assays (depositor defined):AID2013, AID2026]. In kind it is functional.
The target in experiment [22] is T6, Cannabinoid receptor 2. The experiment is described as follows: SAR analysis of agonists of the Cannabinoid Receptor 2 using an Image-Based Assay - Set 3. [Related pubchem assays (depositor defined):AID2013, AID2026]. In kind it is functional.
Experiment [23] concerns the target T5, G-protein coupled receptor 35. As to the kind of experiment: SAR analysis of Agonists of the GPR35 Receptor using an Image-Based Assay - Set 4. [Related pubchem assays (depositor defined):AID2013, AID2026]. It is filed as functional.

Active and inactive are the calls of the source.

T4 sequence (P21554 whole entry): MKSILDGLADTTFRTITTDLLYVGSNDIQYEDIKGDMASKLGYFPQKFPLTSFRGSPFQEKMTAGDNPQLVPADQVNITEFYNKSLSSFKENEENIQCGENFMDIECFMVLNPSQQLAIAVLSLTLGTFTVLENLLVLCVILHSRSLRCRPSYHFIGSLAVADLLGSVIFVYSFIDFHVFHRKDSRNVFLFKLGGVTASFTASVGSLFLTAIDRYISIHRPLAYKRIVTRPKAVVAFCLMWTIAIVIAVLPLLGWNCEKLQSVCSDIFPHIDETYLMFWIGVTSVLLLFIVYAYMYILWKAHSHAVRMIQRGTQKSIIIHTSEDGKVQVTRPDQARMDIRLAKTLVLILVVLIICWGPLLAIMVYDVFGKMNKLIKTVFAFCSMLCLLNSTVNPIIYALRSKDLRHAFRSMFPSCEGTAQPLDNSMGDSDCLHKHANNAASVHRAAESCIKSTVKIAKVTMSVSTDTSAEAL
T5 sequence (Q9HC97 whole entry): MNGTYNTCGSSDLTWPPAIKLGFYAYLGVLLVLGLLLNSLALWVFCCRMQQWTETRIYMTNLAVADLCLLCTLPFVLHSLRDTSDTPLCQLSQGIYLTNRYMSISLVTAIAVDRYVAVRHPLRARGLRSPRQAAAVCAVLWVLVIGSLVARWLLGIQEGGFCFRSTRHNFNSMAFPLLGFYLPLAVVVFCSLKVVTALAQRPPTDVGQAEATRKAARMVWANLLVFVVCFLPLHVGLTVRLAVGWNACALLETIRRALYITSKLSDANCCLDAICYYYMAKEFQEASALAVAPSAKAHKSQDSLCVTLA
T6 sequence (P34972 whole entry): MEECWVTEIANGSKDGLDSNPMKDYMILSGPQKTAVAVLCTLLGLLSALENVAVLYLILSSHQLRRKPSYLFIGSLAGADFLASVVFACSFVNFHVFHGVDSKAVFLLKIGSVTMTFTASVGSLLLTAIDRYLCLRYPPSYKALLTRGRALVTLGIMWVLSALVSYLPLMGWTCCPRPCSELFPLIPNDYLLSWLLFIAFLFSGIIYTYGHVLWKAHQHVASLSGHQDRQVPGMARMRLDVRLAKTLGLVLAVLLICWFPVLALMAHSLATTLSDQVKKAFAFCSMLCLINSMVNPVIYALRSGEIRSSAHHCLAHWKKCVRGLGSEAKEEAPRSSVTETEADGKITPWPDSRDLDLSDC
T3 sequence (Q9HC29 whole entry, the tested form may be a part): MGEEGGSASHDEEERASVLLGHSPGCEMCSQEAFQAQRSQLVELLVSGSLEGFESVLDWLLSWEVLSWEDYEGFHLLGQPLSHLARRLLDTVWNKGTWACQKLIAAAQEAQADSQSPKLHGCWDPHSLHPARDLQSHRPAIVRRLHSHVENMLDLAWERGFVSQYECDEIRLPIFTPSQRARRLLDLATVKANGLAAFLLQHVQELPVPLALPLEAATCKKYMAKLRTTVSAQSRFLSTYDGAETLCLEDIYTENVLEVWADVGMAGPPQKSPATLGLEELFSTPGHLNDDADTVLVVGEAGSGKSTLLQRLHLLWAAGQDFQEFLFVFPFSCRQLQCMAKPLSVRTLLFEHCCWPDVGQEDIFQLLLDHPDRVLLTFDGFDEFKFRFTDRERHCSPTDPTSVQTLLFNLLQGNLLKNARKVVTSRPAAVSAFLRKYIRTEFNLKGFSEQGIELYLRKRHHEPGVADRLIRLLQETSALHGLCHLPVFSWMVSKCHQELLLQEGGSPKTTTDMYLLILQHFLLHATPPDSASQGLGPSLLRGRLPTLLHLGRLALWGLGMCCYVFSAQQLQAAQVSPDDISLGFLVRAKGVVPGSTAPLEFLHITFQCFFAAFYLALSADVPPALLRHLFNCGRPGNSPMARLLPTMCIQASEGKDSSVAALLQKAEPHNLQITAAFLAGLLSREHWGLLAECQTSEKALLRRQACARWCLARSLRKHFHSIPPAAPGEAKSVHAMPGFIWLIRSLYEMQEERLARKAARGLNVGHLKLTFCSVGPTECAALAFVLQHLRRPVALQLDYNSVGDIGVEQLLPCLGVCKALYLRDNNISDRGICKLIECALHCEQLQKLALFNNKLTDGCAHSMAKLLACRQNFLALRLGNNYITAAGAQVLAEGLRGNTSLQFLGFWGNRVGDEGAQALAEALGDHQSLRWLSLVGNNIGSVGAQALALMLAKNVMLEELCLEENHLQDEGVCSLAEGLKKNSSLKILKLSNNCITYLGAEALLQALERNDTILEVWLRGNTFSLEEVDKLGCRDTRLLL
Chain of Tumor necrosis factor (P01375 whole entry): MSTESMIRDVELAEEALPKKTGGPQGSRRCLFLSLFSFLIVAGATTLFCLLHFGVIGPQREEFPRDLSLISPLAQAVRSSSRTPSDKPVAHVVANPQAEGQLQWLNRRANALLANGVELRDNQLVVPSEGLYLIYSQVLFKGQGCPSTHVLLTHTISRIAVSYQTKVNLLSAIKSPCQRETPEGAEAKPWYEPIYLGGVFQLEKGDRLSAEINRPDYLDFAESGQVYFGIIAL
Chain of Sphingosine 1-phosphate receptor 1 (P21453 whole entry): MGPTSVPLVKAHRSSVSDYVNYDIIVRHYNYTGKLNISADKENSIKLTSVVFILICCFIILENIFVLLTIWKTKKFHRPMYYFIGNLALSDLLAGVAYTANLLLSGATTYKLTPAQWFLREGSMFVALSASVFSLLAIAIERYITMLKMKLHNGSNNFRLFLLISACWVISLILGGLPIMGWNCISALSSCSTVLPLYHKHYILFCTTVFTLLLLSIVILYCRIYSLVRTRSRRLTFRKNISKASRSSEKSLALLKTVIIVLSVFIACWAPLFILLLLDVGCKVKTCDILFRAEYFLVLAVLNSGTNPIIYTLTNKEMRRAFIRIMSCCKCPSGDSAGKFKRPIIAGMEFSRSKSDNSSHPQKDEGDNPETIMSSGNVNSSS
Chain of Sphingosine 1-phosphate receptor 5 (Q9H228 whole entry): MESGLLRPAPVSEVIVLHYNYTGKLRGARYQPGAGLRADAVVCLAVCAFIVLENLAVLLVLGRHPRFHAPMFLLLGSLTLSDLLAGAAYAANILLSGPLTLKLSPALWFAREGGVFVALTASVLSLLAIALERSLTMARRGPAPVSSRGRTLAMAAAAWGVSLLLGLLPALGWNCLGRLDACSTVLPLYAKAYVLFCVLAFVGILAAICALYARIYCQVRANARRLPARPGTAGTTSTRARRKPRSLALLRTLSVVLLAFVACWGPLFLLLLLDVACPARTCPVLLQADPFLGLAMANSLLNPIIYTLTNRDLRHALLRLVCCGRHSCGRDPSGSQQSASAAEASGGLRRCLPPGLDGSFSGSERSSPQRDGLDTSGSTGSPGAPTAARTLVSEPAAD
Chain of Sphingosine 1-phosphate receptor 2 (O95136 whole entry): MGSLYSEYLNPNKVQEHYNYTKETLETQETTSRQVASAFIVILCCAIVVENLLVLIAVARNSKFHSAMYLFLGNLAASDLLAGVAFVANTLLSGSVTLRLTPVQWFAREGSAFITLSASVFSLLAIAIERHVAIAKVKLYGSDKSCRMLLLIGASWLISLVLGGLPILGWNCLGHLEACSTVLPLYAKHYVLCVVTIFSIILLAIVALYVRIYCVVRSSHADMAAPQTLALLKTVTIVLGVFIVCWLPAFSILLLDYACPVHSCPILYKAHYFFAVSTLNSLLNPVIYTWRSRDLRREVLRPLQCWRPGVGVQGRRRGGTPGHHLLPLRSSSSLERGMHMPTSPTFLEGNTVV
Chain of Sphingosine 1-phosphate receptor 3 (Q99500 whole entry): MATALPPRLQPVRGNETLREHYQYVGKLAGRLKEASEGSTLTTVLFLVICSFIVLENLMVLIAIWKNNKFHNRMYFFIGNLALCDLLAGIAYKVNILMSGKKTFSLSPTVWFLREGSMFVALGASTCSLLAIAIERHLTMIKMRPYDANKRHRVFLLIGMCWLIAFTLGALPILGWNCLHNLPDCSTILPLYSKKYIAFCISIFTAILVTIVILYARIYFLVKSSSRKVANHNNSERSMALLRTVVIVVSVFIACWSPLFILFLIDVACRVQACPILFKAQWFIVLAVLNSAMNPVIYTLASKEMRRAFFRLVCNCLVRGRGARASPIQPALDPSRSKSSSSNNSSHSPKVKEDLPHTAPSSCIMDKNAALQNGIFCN
Chain of G-protein coupled receptor 55 (Q9Y2T6 whole entry): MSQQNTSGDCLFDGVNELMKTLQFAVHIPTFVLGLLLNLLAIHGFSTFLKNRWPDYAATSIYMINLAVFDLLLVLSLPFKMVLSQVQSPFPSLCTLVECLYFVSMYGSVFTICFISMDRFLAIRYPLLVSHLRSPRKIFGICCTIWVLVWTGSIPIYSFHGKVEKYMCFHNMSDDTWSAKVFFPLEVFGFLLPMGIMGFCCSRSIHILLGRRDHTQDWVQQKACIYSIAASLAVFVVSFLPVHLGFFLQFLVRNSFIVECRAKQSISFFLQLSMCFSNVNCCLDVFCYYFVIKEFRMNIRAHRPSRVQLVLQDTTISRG

As to `C/C(Cl)=C\Cn1c(NCCc2ccccc2)nc2c1c(=O)n(C)c(=O)n2C`, the IC50 in experiment [1] was 4.13 µM (active); in the experiment on HEK293 [2] it was > 20 µM (inactive); in [3], > 25 µM (inactive); on Interleukin-8 [4] it was > 25 µM (inactive); in the experiment with HEK293 [5] it was > 20 µM (inactive); in [7], 2.5 µM (active). Further, the IC50 is 2.61 µM (active) in [8], 3.05 µM (active) in [9], > 25 µM (inactive) on Interleukin-8 [11] and 5.66 µM (active) on Tumor necrosis factor. In addition, the AC50 is 0.283 µM (active) in experiment [6], 0.493 µM (active) in experiment [10] and 59.4 µM (active) in [12].
Take `Cc1ccc2ccccc2c1NC(=O)c1ccc(-c2cc(Cl)ccc2Cl)o1`: the IC50 in experiment [13], in experiment [14], in experiment [15] and in experiment [16] was > 25 µM (inactive) in each case.
As for `Cc1cc(C)nc(NS(=O)(=O)c2ccc(NC(=O)c3cc(-c4ccccc4)nc4ccccc34)cc2)n1`, the IC50 in experiment [17] was 13.7 µM (inactive); in experiment [19], > 32 µM (inactive); on Cannabinoid receptor 2 [20] it was > 32 µM (inactive); at Cannabinoid receptor 1 [21], 4.92 µM (active). For the same molecule, the EC50 (at Cannabinoid receptor 1 [18]; at Cannabinoid receptor 2 [22]; in [23]) was > 32 µM (inactive) each time.

The record behind these values is ChEMBL document CHEMBL1201862, “PubChem BioAssay data set” (2004).
